{"source": "patent US8163709B2", "about": "“TAK1-D mediated induction of cell death in human cancer cells by specific sequence short double-stranded RNAS” (Board of Regents of the University of Texas System, priority 2008, dated 2012)", "key": {"TAK1-A": {"tested_on": "TAK1-A", "assay": "Autophosphorylation of the other (long) Tak1 splicing variants in H460 cells", "assay_type": "cell-based, human", "conditions": "siRNA 20 nM", "text": "In contrast only the long form (TAK1-A) is able to activate the NFκB pathway through phosphorylation of IKKα/β."}, "cdc25B": {"tested_on": "cdc25B", "assay": "Nuclear cdc25B level in NCI-H460 cells", "assay_type": "cell-based, human", "text": "P38 MAPK as well as SPK/JNK have a large number of downstream targets. Amongst these, the phosphorylation of the cell cycle control phosphatase cdc25 (Bulavin et al., 2001; Goss et al., 2003) are of particular interest, as these phosphorylations have the potential to transduce an immediate and direct effect of TAK1-D activation to the cell cycle. […] In contrast, both cdc25A and cdc25B were found in the nucleus and therefore capable of cell cycle control. […] The occurrence of this shifted form of cdc25A is indicative of phosphorylation and inactivation of cdc25A (Zhao et al., 2002). The amount of cdc25B in the nucleus decreases with kinetics similar to the phosphorylation of cdc25A, indicative for a phosphorylation dependent translocation and proteolytic digestion of cdc25B (Cans et al., 1999). Therefore, it can be concluded that activation of TAK1-D in NCI-H460 cells leads to an inactivation of cdc25A and cdc25B through p38 MAPK and SAPK/JNK mediated phosphorylation and proteolytic destruction."}, "H460 cells": {"tested_on": "H460 cells", "assay": "Apoptosis in H460 cells (caspase 3 cleavage, PARP cleavage, nuclear morphology)", "assay_type": "cell-based, human", "text": "Cell cycle arrest triggers programmed cell death in many tumor cell lines.\nAs cell cycle arrest is incompatible with survival in many tumor cell lines the cellular response of H460 cells to the treatment with dsRNA si5 was investigated.\nSurvival assay and apoptosis scoring."}, "H460 xenograft tumors [1]": {"tested_on": "H460 xenograft tumors", "assay": "H460 xenograft tumor growth after intratumoral injection", "assay_type": "in vivo", "procedure": "In order to test whether the proposed treatment approach for NSCLC using dsRNA-mediated activation of TAK1-D is feasible in vivo H460 xenograft tumors grown in athymic NCr nu/nu mice were treated with by intratumoral injection of a liposomal dsRNA preparation. About 10 days after subcutaneous injection of […] H460 cells into the left hind leg of the animals tumors had reached a volume of about 300 μl and were injected with 50 μl of liposomal control RNA or active RNA si5. Liposomes consisting of DOTAP and Cholesterol (1:1) were prepared by sonication and extrusion. RNA was bound to the polycation protamine and liposome/polycation/RNA nanoparticles were prepared by mixing the protamine RNA complex with the liposomes. Finally 4 μg of RNA were injected in a volume of 50 μl on day 0 and 1. […]."}, "H460 xenograft tumors [2]": {"tested_on": "H460 xenograft tumors", "assay": "Immunohistochemistry for cleaved Caspase-3 in H460 xenograft tumors", "assay_type": "in vivo, mice", "conditions": "16 hours after intratumoral injection", "procedure": "To gain an insight into the mechanisms of dsRNA si5-induced growth delay in H460 xenograft tumors shown in FIG. 26, the tumors were analyzed by immunohistochemical staining for apoptotic activation of Caspase-3. Two tumors with a volume of about 500 μl were injected with a liposomal preparation of active and control dsRNA as described above. Sixteen hours after injection mice were sacrificed and the tumors were fixed in formaldehyde. After paraffin embedding 5 μm sections were cut from the central region of the tumor. The sections were stained immunohistochemically using a primary antibody against cleaved Caspase-3. The primary antibody was detected using a biotinylated secondary antibody and an peroxidase ABC-Kit (Vector Laboratories). Diaminobenzidine (DAB) was used as a substrate for immunohistochemical detection and the slides were counterstained with Hematoxylin."}}}
{"substance": "si5: 21-mer siRNA against TLK1 mRNA: GGCUUUUGACCUUUAUGAAtt (SEQ ID NO: 2) / ttCCGAAAACUGGAAAUACUU (SEQ ID NO: 3) (sense GGCUUUUGACCUUUAUGAATT; antisense TTCCGAAAACUGGAAAUACUU; chemistry not given here; one strand is listed 3' to 5')", "values": [{"measurement": "activating autophosphorylation of the other three splicing variants of Tak1", "setting": "TAK1-A", "value": "does not induce activating autophosphorylation"}, {"measurement": "amount of cdc25B in the nucleus", "setting": "cdc25B", "value": "decreases"}, {"measurement": "cellular apoptotic response with inactivated Tak1-D catalytic activity", "setting": "H460 cells; H460, adenoviral K63W, 48 h after siRNA", "value": "significantly reduced"}, {"measurement": "nuclear morphology, HOECHST 33342 staining", "setting": "H460 cells; H460 cells, 48 h", "value": "typical apoptotic chromatin condensation and fragmentation"}, {"measurement": "time until PARP cleavage", "setting": "H460 cells; H460 cells, Western blot", "value": "≤ 24", "unit": "h"}, {"measurement": "caspase 3 cleavage", "setting": "H460 cells; NCI-H460, 24 h after treatment", "value": "cells from the G1 and the S phase of the cell cycle show caspase 3 cleavage"}, {"measurement": "fraction of G1 and S phase cells staining positive for cleaved caspase 3", "setting": "H460 cells; NCI-H460, 48 h, compared with 24 h", "value": "higher"}, {"measurement": "normal tissue toxicity (necrosis of skin or tumor vascular system)", "setting": "H460 xenograft tumors [1]; intratumoral liposomal preparation", "value": "no sign of normal tissue toxicity"}, {"measurement": "tumor growth kinetics", "setting": "H460 xenograft tumors [1]; intratumoral, liposome (DOTAP:Cholesterol)/protamine/RNA nanoparticles, 4 μg RNA day 0 and 1", "value": "tumor growth delay"}, {"measurement": "apoptotic activation of Caspase-3 (DAB staining)", "setting": "H460 xenograft tumors [2]", "value": "visible in many cells"}]}
